# From patent US20200017495A1, “NOVEL HETEROCYCLIC COMPOUNDS AND THEIR USE IN PREVENTING OR TREATING BACTERIAL INFECTIONS” (priority 2017, published 2020)
# Key:
# Assay type in all cases: cell-based
# [1] = system: Proteus mirabilis (PMI) isolates; assay: microbe, parasite or virus in culture
# Procedure, shortened: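 Log-phase isolates were inoculated at a final 5.10^5 CFU/mL in cation-adjusted Mueller-Hinton broth and incubated 16-20 h at 35° C in ambient air. MIC was the lowest concentration preventing visible growth; for combinations, the antibacterial MIC was read at each compound concentration.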
# [2] = system: Citrobacter murliniae (CMU) isolates; assay: MIC of compounds alone and combined with antibacterials, broth microdilution (CLSI); settings: for MIC ATB in combination: CMU 210102
# Procedure, shortened: (§1)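 Growth inhibition was scored by eye after 16-20 h at 35° C in air, using cation-adjusted Mueller-Hinton broth seeded with 5.10^5 CFU/mL log-phase cells. Single agents gave compound MICs; paired with antibiotics, the antibiotic MIC was taken at every compound concentration.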
# [3] = system: Providencia stuartii (PST) isolates; assay: as above
# Procedure, shortened: as §1
# [4] = system: Salmonella typhimurium (STY) isolates; assay: as above; settings: for MIC ATB in combination: STY S3371
# Procedure, shortened: as §1
structure (smiles),measurement,setting,value
"C=CC1=C(C(=O)O)N2C(=O)[C@@H](NC(=O)/C(=N\OCC(=O)O)c3csc(N)n3)[C@H]2SC1 [FIX, Cefixime]",MIC ATB in combination,"[1]; PMI UFR82, AF2 @ 8 μg/mL",<0.25 mg/L
same,MIC ATB in combination,"[1]; PMI UFR82, AF3 @ 8 μg/mL",<0.25 mg/L
same,MIC ATB in combination,"[1]; PMI UFR82, CLA @ 4 μg/mL",4 mg/L
same,MIC ATB in combination,"[1]; PMI UFR126, AF2 @ 8 μg/mL",<0.25 mg/L
same,MIC ATB in combination,"[1]; PMI UFR126, AF3 @ 8 μg/mL",<0.25 mg/L
same,MIC ATB in combination,"[1]; PMI UFR126, CLA @ 4 μg/mL",<=0.25 μg/mL
same,MIC ATB in combination,"[1]; PMI UFR127, AF2 @ 8 μg/mL",<0.25 mg/L
same,MIC ATB in combination,"[1]; PMI UFR127, AF3 @ 8 μg/mL",<0.25 mg/L
same,MIC ATB in combination,"[1]; PMI UFR127, CLA @ 4 μg/mL",<=0.25 μg/mL
same,MIC ATB in combination,"[1]; PMI UFR128, AF2 @ 8 μg/mL",<0.25 mg/L
same,MIC ATB in combination,"[1]; PMI UFR128, AF3 @ 8 μg/mL",<0.25 mg/L
same,MIC ATB in combination,"[1]; PMI UFR128, CLA @ 4 μg/mL",0.5 mg/L
same,MIC ATB in combination,"[1]; PMI UFR129, AF2 @ 8 μg/mL",<0.25 mg/L
same,MIC ATB in combination,"[1]; PMI UFR129, AF3 @ 8 μg/mL",<0.25 mg/L
same,MIC ATB in combination,"[1]; PMI UFR129, CLA @ 4 μg/mL",<=0.25 μg/mL
same,MIC ATB in combination,"[1]; PMI UFR130, AF2 @ 8 μg/mL",<0.25 mg/L
same,MIC ATB in combination,"[1]; PMI UFR130, AF3 @ 8 μg/mL",<0.25 mg/L
same,MIC ATB in combination,"[1]; PMI UFR130, CLA @ 4 μg/mL",8 mg/L
same,MIC ATB in combination,"[1]; PMI UFR133, AF2 @ 8 μg/mL",<0.25 mg/L
same,MIC ATB in combination,"[1]; PMI UFR133, AF3 @ 8 μg/mL",<0.25 mg/L
same,MIC ATB in combination,"[1]; PMI UFR133, CLA @ 4 μg/mL",<=0.25 μg/mL
same,MIC ATB in combination,"[1]; PMI UFR237, AF2 @ 8 μg/mL",<0.25 mg/L
same,MIC ATB in combination,"[1]; PMI UFR237, AF3 @ 8 μg/mL",<0.25 mg/L
same,MIC ATB in combination,"[1]; PMI UFR237, CLA @ 4 μg/mL",<=0.25 μg/mL
same,MIC,"[1]; strain PMI UFR82, genotype CMY-2",8 mg/L
same,MIC,"[1]; strain PMI UFR120, genotype TEM-1, SHV-11, CTX-M-14",0.5 mg/L
same,MIC,"[1]; strain PMI UFR121, genotype TEM-1, TEM-52",128 mg/L
same,MIC,"[1]; strain PMI UFR122, genotype TEM-1, CTX-M-15",1 mg/L
same,MIC,"[1]; strain PMI UFR123, genotype CTX-M-1",128 mg/L
same,MIC,"[1]; strain PMI UFR124, genotype CTX-M-2",>128 mg/L
same,MIC,"[1]; strain PMI UFR125, genotype CTX-M-71",0.5 mg/L
same,MIC,"[1]; strain PMI UFR126, compound alone",1024 mg/L
same,MIC,"[1]; strain PMI UFR126, genotype TEM-2, PER-1",1024 mg/L
same,MIC,"[1]; strain PMI UFR127, compound alone",>128 mg/L
same,MIC,"[1]; strain PMI UFR127, genotype VEB-1",>128 mg/L
same,MIC,"[1]; strain PMI UFR128, genotype VEB-1, OXA-10",>128 mg/L
same,MIC,"[1]; strain PMI UFR129, genotype TEM-1, VEB-6",>128 mg/L
same,MIC,"[1]; strain PMI UFR130, genotype CMY-2",8 mg/L
same,MIC,"[1]; strain PMI UFR131, genotype CMY-16, OXA-1, OXA-10, NDM-1, ArmA",>128 mg/L
same,MIC ATB in combination,"[1]; strain PMI UFR131, with AF2 @ 8 μg/mL",<0.25 mg/L
same,MIC ATB in combination,"[1]; strain PMI UFR131, with AF3 @ 8 μg/mL",<0.25 mg/L
same,MIC ATB in combination,"[1]; strain PMI UFR131, with CLA @ 4 μg/mL",>128 mg/L
same,MIC,"[1]; strain PMI UFR132, genotype VEB-6, DHA-1, NDM-1, AphA6, AacA4",>128 mg/L
same,MIC ATB in combination,"[1]; strain PMI UFR132, with AF2 @ 8 μg/mL",<0.25 mg/L
same,MIC ATB in combination,"[1]; strain PMI UFR132, with AF3 @ 8 μg/mL",<0.25 mg/L
same,MIC ATB in combination,"[1]; strain PMI UFR132, with CLA @ 4 μg/mL",>128 mg/L
same,MIC,"[1]; strain PMI UFR133, genotype OXA-23",<=0.25 μg/mL
same,MIC,"[1]; strain PMI UFR237, genotype VEB-6",>128 mg/L
same,MIC ATB in combination,[2]; AF2 @ 8 μg/mL,>128 mg/L
same,MIC ATB in combination,[2]; AF3 @ 8 μg/mL,>128 mg/L
same,MIC ATB in combination,[2]; CLA @ 4 μg/mL,>128 mg/L
same,MIC,"[2]; strain CMU 210102, genotype VIM-4",>128 mg/L
same,MIC ATB in combination,"[3]; PST UFR94, AF2 @ 8 μg/mL",<=0.25 μg/mL
same,MIC ATB in combination,"[3]; PST UFR94, AF3 @ 8 μg/mL",<=0.25 μg/mL
same,MIC ATB in combination,"[3]; PST UFR94, CLA @ 4 μg/mL",2 mg/L
same,MIC ATB in combination,"[3]; PST UFR95, AF2 @ 8 μg/mL",<=0.25 μg/mL
same,MIC ATB in combination,"[3]; PST UFR95, AF3 @ 8 μg/mL",<=0.25 μg/mL
same,MIC ATB in combination,"[3]; PST UFR95, CLA @ 4 μg/mL",8 mg/L
same,MIC ATB in combination,"[3]; PST UFR120, AF2 @ 8 μg/mL",<0.25 mg/L
same,MIC ATB in combination,"[3]; PST UFR120, AF3 @ 8 μg/mL",<0.25 mg/L
same,MIC ATB in combination,"[3]; PST UFR120, CLA @ 4 μg/mL",<=0.25 μg/mL
same,MIC ATB in combination,"[3]; PST UFR121, AF2 @ 8 μg/mL",<0.25 mg/L
same,MIC ATB in combination,"[3]; PST UFR121, AF3 @ 8 μg/mL",<0.25 mg/L
same,MIC ATB in combination,"[3]; PST UFR121, CLA @ 4 μg/mL",<=0.25 μg/mL
same,MIC ATB in combination,"[3]; PST UFR122, AF2 @ 8 μg/mL",<0.25 mg/L
same,MIC ATB in combination,"[3]; PST UFR122, AF3 @ 8 μg/mL",<0.25 mg/L
same,MIC ATB in combination,"[3]; PST UFR122, CLA @ 4 μg/mL",<=0.25 μg/mL
same,MIC ATB in combination,"[3]; PST UFR123, AF2 @ 8 μg/mL",<0.25 mg/L
same,MIC ATB in combination,"[3]; PST UFR123, AF3 @ 8 μg/mL",<0.25 mg/L
same,MIC ATB in combination,"[3]; PST UFR123, CLA @ 4 μg/mL",<=0.25 μg/mL
same,MIC ATB in combination,"[3]; PST UFR124, AF2 @ 8 μg/mL",<0.25 mg/L
same,MIC ATB in combination,"[3]; PST UFR124, AF3 @ 8 μg/mL",<0.25 mg/L
same,MIC ATB in combination,"[3]; PST UFR124, CLA @ 4 μg/mL",<=0.25 μg/mL
same,MIC ATB in combination,"[3]; PST UFR125, AF2 @ 8 μg/mL",<0.25 mg/L
same,MIC ATB in combination,"[3]; PST UFR125, AF3 @ 8 μg/mL",<0.25 mg/L
same,MIC ATB in combination,"[3]; PST UFR125, CLA @ 4 μg/mL",<=0.25 μg/mL
same,MIC ATB in combination,"[3]; PST UFR235, AF2 @ 8 μg/mL",<=0.25 μg/mL
same,MIC ATB in combination,"[3]; PST UFR235, AF3 @ 8 μg/mL",<=0.25 μg/mL
same,MIC ATB in combination,"[3]; PST UFR235, CLA @ 4 μg/mL",8 mg/L
same,MIC,"[3]; strain PST UFR94, genotype CTX-M-14",0.5 mg/L
same,MIC,"[3]; strain PST UFR95, genotype TEM-24",4 mg/L
same,MIC,"[3]; strain PST UFR98, genotype TEM-1, CMY-6, OXA-1, NDM-1, RmtC",>128 mg/L
same,MIC ATB in combination,"[3]; strain PST UFR98, with AF2 @ 8 μg/mL",64 mg/L
same,MIC ATB in combination,"[3]; strain PST UFR98, with AF3 @ 8 μg/mL",32 mg/L
same,MIC ATB in combination,"[3]; strain PST UFR98, with CLA @ 4 μg/mL",>128 mg/L
same,MIC,"[3]; strain PST UFR235, compound alone",512 mg/L
same,MIC,"[3]; strain PST UFR235, genotype VEB-1",512 mg/L
same,MIC ATB in combination,[4]; AF2 @ 8 μg/mL,<0.25 mg/L
same,MIC ATB in combination,[4]; AF3 @ 8 μg/mL,<0.25 mg/L
same,MIC ATB in combination,[4]; CLA @ 4 μg/mL,<=0.25 μg/mL
same,MIC,"[4]; strain STY S3371, genotype OXA-1",<=0.25 μg/mL
